We go through 30 molecules from patent US9814739B2, “2′-ethynyl nucleoside derivatives for treatment of viral infections” (priority 2012, dated 2017).

Where two headings read alike, the source gives them in different places.

Series [1] deals with GT1b HCV luciferase replicon. The experiment in a line: HCV replicon antiviral EC50 assay. In kind it is cell-based, Hepatitis C virus. (Replicon systems follow genome replication, usually without infectious particles.)
Series [2] relates to Replicon cells, expressing the GT1b HCV luciferase replicon.
Another series can be described thus: in vitro. Conditions: for CC50: HCV GT1b CC50 (uM).
[3] abbreviates: Hepatitis C virus, GT1B, 72 h, read-out: HCV GT1b EC50 (uM).

On to `C#C[C@@]1(O)[C@H](O)[C@@H](COP(=O)(N[C@@H](Cc2ccccc2)C(=O)OC(C)C)Oc2ccccc2)O[C@H]1n1ccc(=O)[nH]c1=O` (single isomer, unassigned) [1.10 (peak 1)], for which, in series [1] (read-out: HCV GT1b EC50), the concentration for a half-maximal effect (EC50) – broadly, the midpoint of the concentration-response curve – stood at 2.87 µM. The CC50 in series [2] was more than 25000 nM.

With `C#C[C@@]1(O)[C@H](O)[C@@H](COP(=O)(N[C@@H](C)C(=O)OC2CCC2)Oc2ccccc2)O[C@H]1n1ccc(=O)[nH]c1=O` (single isomer, unassigned) [1.11 (peak 1)], the EC50 in series [1] (read-out: HCV GT1b EC50) is 0.1 µM. Further, the CC50 in series [2] is more than 25000 nM.

As for `C#C[C@@]1(O)[C@H](O)[C@@H](COP(=O)(N[C@@H](C)C(=O)O[C@@H](C)CC)Oc2ccccc2)O[C@H]1n1ccc(=O)[nH]c1=O` (single isomer, unassigned) [1.13 (peak 1)], the EC50 in series [1] (read-out: HCV GT1b EC50) worked out at 0.302 µM. The CC50 in series [2] was more than 25000 nM.

On to `C#C[C@@]1(O)[C@H](O)[C@@H](COP(=O)(N[C@@H](C)C(=O)OC2CCOCC2)Oc2ccccc2)O[C@H]1n1ccc(=O)[nH]c1=O` (single isomer, unassigned) [1.14 (peak 1)], for which, in series [1] (read-out: HCV GT1b EC50), the EC50 stood at 1.15 µM. For the same molecule, the CC50 in series [2] was more than 25000 nM.

Consider `C#C[C@@]1(O)[C@H](O)[C@@H](COP(=O)(N[C@@H](C)C(=O)O[C@H](C)CC)Oc2ccccc2)O[C@H]1n1ccc(=O)[nH]c1=O` (single isomer, unassigned) [1.15 (peak 1)], for which the 50% effective concentration (EC50) in series [1] (read-out: HCV GT1b EC50) amounted to 0.172 µM. The molecule also displayed a CC50 in series [2] of more than 25000 nM.

With `C#C[C@@]1(O)[C@H](O)[C@@H](COP(=O)(N[C@@H](C)C(=O)OC(CC)CC)Oc2ccccc2)O[C@H]1n1ccc(=O)[nH]c1=O` (single isomer, unassigned) [1.16 (peak 1)], in series [1] (read-out: HCV GT1b EC50), the EC50 was found to be 0.34 µM. In addition, in series [2], the CC50 was more than 25000 nM.

With `C#C[C@@]1(O)[C@H](O)[C@@H](COP(=O)(N[C@@H](C)C(=O)OCOC(C)=O)Oc2ccccc2)O[C@H]1n1ccc(=O)[nH]c1=O` (single isomer, unassigned) [1.17 (peak 1)], the EC50 in series [1] (read-out: HCV GT1b EC50) was 6.8 µM. Moreover, in series [2], the CC50 is more than 25000 nM.

On to `C#C[C@@]1(O)[C@H](O)[C@@H](COP(=O)(NCCOC(=O)c2ccccc2)Oc2ccccc2)O[C@H]1n1ccc(=O)[nH]c1=O` (single isomer, unassigned) [1.18 (peak 1)], for which, in series [1] (read-out: HCV GT1b EC50), the EC50 is 0.08 µM. This molecule came in with a CC50 in series [2] of more than 25000 nM.

`C#C[C@@]1(O)[C@H](O)[C@@H](COP(=O)(N[C@@H](CC(C)C)C(=O)OC(C)C)Oc2ccccc2)O[C@H]1n1ccc(=O)[nH]c1=O` (single isomer, unassigned) [1.23 (peak 1)]: the EC50 in series [1] (read-out: HCV GT1b EC50) amounted to 2.72 µM. The molecule further showed a CC50 in series [2] of more than 25000 nM.

Take `C#C[C@@]1(O)[C@H](O)[C@@H](COP(=O)(N[C@@H](CCC)C(=O)OC(C)C)Oc2ccccc2)O[C@H]1n1ccc(=O)[nH]c1=O` (single isomer, unassigned) [1.24 (peak 1)]: the concentration giving a half-maximal response (EC50) in series [1] (read-out: HCV GT1b EC50) came out at 0.89 µM. For the same molecule, the CC50 in series [2] is more than 25000 nM.

In the case of `C#C[C@@]1(O)[C@H](O)[C@@H](COP(=O)(N[C@@H](C)C(=O)OC(C)C)Oc2ccccc2)O[C@H]1n1ccc(OC)nc1=O` (single isomer, unassigned) [1.28 (peak 1)], the EC50 in series [1] (read-out: HCV GT1b EC50) is more than 100 µM. Moreover, the CC50 in series [2] is more than 25000 nM.

Regarding `C#C[C@@]1(O)[C@H](O)[C@@H](COP(=O)(N[C@@H](C)C(=O)OC(C)C)Oc2ccccc2)O[C@H]1n1ccc(N)nc1=O` (single isomer, unassigned) [1.30 (peak 1)], the concentration giving a half-maximal response (EC50) in series [1] (read-out: HCV GT1b EC50) turned out to be 44.9 µM. Besides, the CC50 in series [2] was more than 25000 nM.

For `C#C[C@@]1(O)[C@H](O)[C@@H](COP(=O)(N[C@@H](C)C(=O)OC2CCCC2)Oc2ccccc2)O[C@H]1n1ccc(=O)[nH]c1=O` (single isomer, unassigned) [1.31 (peak 1)], the 50% effective concentration (EC50) in series [1] (read-out: HCV GT1b EC50) came to 0.024 µM. Besides, the CC50 in series [2] was more than 25000 nM.

Regarding `C#C[C@@]1(O)[C@H](O)[C@@H](COP(=O)(N[C@@H](C)C(=O)OCC(C)(C)OC)Oc2ccccc2)O[C@H]1n1ccc(=O)[nH]c1=O` (single isomer, unassigned) [1.32 (peak 1)], in series [1] (read-out: HCV GT1b EC50), the concentration for a half-maximal effect (EC50) was 0.53 µM. Besides, the CC50 in series [2] is more than 25000 nM.

Consider `C#C[C@@]1(O)[C@H](O)[C@@H](COP(=O)(N[C@@H](C)C(=O)OCC(C)(C)OC)Oc2ccccc2)O[C@H]1n1ccc(=O)[nH]c1=O` (single isomer, unassigned) [1.32 (peak 2)], for which the EC50 in series [1] (read-out: HCV GT1b EC50) was determined as 0.182 µM. Moreover, the CC50 in the series “in vitro” is more than 25 µM.

For `C#C[C@@]1(O)[C@H](O)[C@@H](COP(=O)(N[C@@H](C)C(=O)OCC(C)(C)C)Oc2ccccc2)O[C@H]1n1ccc(=O)[nH]c1=O` (single isomer, unassigned) [1.33 (peak 1)], the EC50 in series [1] (read-out: HCV GT1b EC50) stood at 0.081 µM. The same molecule gave a CC50 in series [2] of 19700 nM.

Regarding `C#C[C@@]1(O)[C@H](O)[C@@H](COP(=O)(N[C@@H](C)C(=O)OCC(C)(C)C)Oc2ccccc2)O[C@H]1n1ccc(=O)[nH]c1=O` (single isomer, unassigned) [1.33 (peak 2)], in series [1] (read-out: HCV GT1b EC50), the half-maximal effective concentration (EC50) came out at 0.994 µM. Moreover, in “in vitro”, the CC50 is more than 25 µM.

Regarding `C#C[C@@]1(O)[C@H](O)[C@@H](COP(=O)(N[C@@H](C)C(=O)OC(CCC)CCC)Oc2ccccc2)O[C@H]1n1ccc(=O)[nH]c1=O` (single isomer, unassigned) [1.34 (peak 1)], the EC50 in series [1] (read-out: HCV GT1b EC50) stood at 0.301 µM. Moreover, the CC50 in series [2] was more than 25000 nM.

`C#C[C@@]1(O)[C@H](O)[C@@H](COP(=O)(N[C@@H](C)C(=O)OC(CCC)CCC)Oc2ccccc2)O[C@H]1n1ccc(=O)[nH]c1=O` (single isomer, unassigned) [1.34 (peak 2)]: the 50% effective concentration (EC50) in series [1] (setting [3]) is 0.151 µM. The same molecule came in with a CC50 in the series “in vitro” of more than 25 µM.

Consider `C#C[C@@]1(O)[C@H](O)[C@@H](COP(=O)(N[C@@H](C)C(=O)OC)Oc2ccccc2)O[C@H]1n1ccc(=O)[nH]c1=O` (single isomer, unassigned) [1.35 (peak 2)], for which the EC50 in series [1] (setting [3]) stood at 0.194 µM. Besides, in “in vitro”, the CC50 was more than 25 µM.

Turning to `C#C[C@@]1(O)[C@H](O)[C@@H](COP(=O)(N[C@@H](C)C(=O)OCC)Oc2ccccc2)O[C@H]1n1ccc(=O)[nH]c1=O` (single isomer, unassigned) [1.36 (peak 2)], the concentration for a half-maximal effect (EC50) in series [1] (setting [3]) was 0.096 µM. In the series “in vitro”, this molecule yielded a CC50 of more than 25 µM.

For the molecule `C#C[C@@]1(O)[C@H](O)[C@@H](COP(=O)(NC(C)(C)C(=O)OCC)Oc2ccccc2)O[C@H]1n1ccc(=O)[nH]c1=O` (single isomer, unassigned) [1.37 (peak 2)], the concentration giving a half-maximal response (EC50) in series [1] (setting [3]) is 0.478 µM. In addition, the CC50 in “in vitro” is more than 25 µM.

As to `C#C[C@@]1(O)[C@H](O)[C@@H](COP(=O)(N[C@@H](CC)C(=O)OC(C)C)Oc2ccccc2)O[C@H]1n1ccc(=O)[nH]c1=O` (single isomer, unassigned) [1.38 (peak 2)], the concentration giving a half-maximal response (EC50) in series [1] (setting [3]) is 0.54 µM. Besides, the CC50 in the series “in vitro” is more than 25 µM.

In the case of `C#C[C@@]1(O)[C@H](O)[C@@H](COP(=O)(NC(C)(C)C(=O)OC(C)C)Oc2ccccc2)O[C@H]1n1ccc(=O)[nH]c1=O` (single isomer, unassigned) [1.39 (peak 2)], the EC50 in series [1] (read-out: HCV GT1b EC50) amounted to 0.047 µM. Further, the CC50 in “in vitro” was more than 25 µM.

Consider `C#C[C@@]1(O)[C@H](O)[C@@H](COP(=O)(N[C@@H](C)C(=O)OC2CCCCC2)Oc2ccccc2)O[C@H]1n1ccc(=O)[nH]c1=O` (stereo partly drawn) [Example 1.12, (2S)-cyclohexyl 2-(((((2R,3R,4R,5R)-5-(2,4-dioxo-3,4-dihydropyrimidin-1(2H)-yl)-4-ethynyl-3,4-dihydroxytetrahydrofuran-2-yl)methoxy)(phenoxy)phosphoryl)amino)propanoate], for which the EC50 in series [1] (setting [3]) worked out at 0.013 µM. Moreover, the CC50 in the series “in vitro” is more than 25 µM.

With `C#C[C@@]1(O)[C@H](O)[C@@H](COP(=S)(N[C@@H](C)C(=O)OC(C)C)Oc2ccccc2)O[C@H]1n1ccc(=O)[nH]c1=O` (stereo partly drawn) [Example 1.19, (2S)-isopropyl 2-(((((2R,3R,4R,5R)-5-(2,4-dioxo-3,4-dihydropyrimidin-1(2H)-yl)-4-ethynyl-3,4-dihydroxytetrahydrofuran-2-yl)methoxy)(phenoxy)phosphorothioyl)amino)propanoate], the EC50 in series [1] (setting [3]) came out at 0.036 µM. In “in vitro”, this molecule returned a CC50 at 3 days of more than 25000 nM.

Consider `C#C[C@@]1(O)[C@H](OC(C)=O)[C@@H](COP(=O)(N[C@@H](C)C(=O)OC(C)C)Oc2ccccc2)O[C@H]1n1ccc(=O)[nH]c1=O` (stereo partly drawn) [Example 1.21, (2S)-isopropyl 2-(((((2R,3R,4R,5R)-3-acetoxy-5-(2,4-dioxo-3,4-dihydropyrimidin-1(2H)-yl)-4-ethynyl-4-hydroxytetrahydrofuran-2-yl)methoxy)(phenoxy)phosphoryl)amino)propanoate], for which the concentration for a half-maximal effect (EC50) in series [1] (setting [3]) turned out to be 0.067 µM. The molecule further came in with a CC50 in the series “in vitro” of more than 25 µM.

On to `C#C[C@@]12OC(=O)O[C@@H]1[C@@H](COP(=O)(N[C@@H](C)C(=O)OC(C)C)Oc1ccccc1)O[C@H]2n1ccc(=O)[nH]c1=O` (stereo partly drawn) [Example 1.22, (2S)-isopropyl 2-(((((3aR,4R,6R,6aR)-6-(2,4-dioxo-3,4-dihydropyrimidin-1(2H)-yl)-6a-ethynyl-2-oxotetrahydrofuro[3,4-d][1,3]dioxol-4-yl)methoxy)(phenoxy)phosphoryl)amino)propanoate], for which the concentration giving a half-maximal response (EC50) in series [1] (setting [3]) worked out at 0.108 µM. This molecule had a CC50 in the series “in vitro” of more than 25 µM.

As for `C#C[C@]1(O)[C@H](n2ccc(=O)[nH]c2=O)O[C@@](CO[P@@](=O)(N[C@@H](C)C(=O)OC(C)C)Oc2ccccc2)(N=[N+]=[N-])[C@H]1O` [Example 1.26, (2S)-isopropyl 2-(((((2R,3S,4R,5R)-2-azido-5-(2,4-dioxo-3,4-dihydropyrimidin-1(2H)-yl)-4-ethynyl-3,4-dihydroxytetrahydrofuran-2-yl)methoxy)(phenoxy)phosphoryl)amino)propanoate], the 50% effective concentration (EC50) in series [1] (setting [3]) was 1.44 µM. In the series “in vitro”, the CC50 was more than 25 µM.

Consider `C#C[C@@]1(O)[C@H](O)[C@@H](COP(=O)(O)N[C@@H](C)C(=O)O)O[C@H]1n1ccc(=O)[nH]c1=O` [Example 1.40, (2S)-2-(((((2R,3R,4R,5R)-5-(2,4-dioxo-3,4-dihydropyrimidin-1(2H)-yl)-4-ethynyl-3,4-dihydroxytetrahydrofuran-2-yl)methoxy)(hydroxy)phosphoryl)amino)propanoic acid], for which the concentration for a half-maximal effect (EC50) in series [1] (Hepatitis C virus, 72 h, GT1b replicon cells, 3 days, luciferase, read-out: HCV GT1b EC50) came to 0.148 µM. This molecule also had a CC50 in the series “in vitro” of more than 25 µM.
